Laboratory results from paper PMC12327690, “Secreted LysM proteins are required for niche competition and full virulence in Pseudomonas savastanoi during host plant infection” (PLOS Pathogens, 2025).

Biological target: T1, LysM3 (Pseudomonas savastanoi, UniProt Q48F89)
T1 construct: gene PSPPH_3810; LysM + M23 domains; pET28a::lysM3 in E. coli BL21(DE3), HisTrap IMAC then SEC
Assay: nanoDSF (Tycho NT.[…]) thermal shift
Assay type: binding
Details: 1 mM ligand, 5 µM protein, no Zn2+, 20 mM Hepes pH 8.0, 150 mM NaCl

T1 sequence (Q48F89 entry or part of it): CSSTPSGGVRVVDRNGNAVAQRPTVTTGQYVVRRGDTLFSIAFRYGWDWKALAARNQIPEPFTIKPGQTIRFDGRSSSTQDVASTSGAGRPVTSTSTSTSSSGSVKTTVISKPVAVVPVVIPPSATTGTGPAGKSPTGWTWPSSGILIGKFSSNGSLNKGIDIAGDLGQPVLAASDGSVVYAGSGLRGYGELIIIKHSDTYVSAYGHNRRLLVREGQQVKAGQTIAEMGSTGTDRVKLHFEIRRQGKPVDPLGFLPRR

Structure (SMILES) | Ti with ligand (LysM3 alone 51.4 ± 0.1) [°C]
CC(=O)N[C@H]1[C@H](O[C@H]2[C@H](O)[C@@H](NC(C)=O)C(O)O[C@@H]2CO)O[C@H](CO)[C@@H](O[C@@H]2O[C@H](CO)[C@@H](O[C@@H]3O[C@H](CO)[C@@H](O)[C@H](O)[C@H]3NC(C)=O)[C@H](O)[C@H]2NC(C)=O)[C@@H]1O (some centres unmarked) [NAG4, tetra-N-acetylglucosamine] | 52.9 ± 0.1
CC(=O)N[C@H]1[C@H](O[C@H]2[C@H](O)[C@@H](NC(C)=O)[C@H](O[C@H]3[C@H](O)[C@@H](NC(C)=O)C(O)O[C@@H]3CO)O[C@@H]2CO)O[C@H](CO)[C@@H](O[C@@H]2O[C@H](CO)[C@@H](O[C@@H]3O[C@H](CO)[C@@H](O[C@@H]4O[C@H](CO)[C@@H](O)[C@H](O)[C@H]4NC(C)=O)[C@H](O)[C@H]3NC(C)=O)[C@H](O)[C@H]2NC(C)=O)[C@@H]1O (some centres unmarked) [NAG6, hexa-N-acetylglucosamine] | 52.7 ± 0.4
